From patent publication US8933103B2, “Pyridone derivatives” (Daiichi Sankyo Company, Limited, priority 2012, dated 2015)

Target: T1, AXL (fusion protein of amino acids 464-885 of the intracellular domain of human AXL with glutathione transferase) (Homo sapiens, UniProt P30530)
T1 sequence (P30530 464-885 isoform P30530-2): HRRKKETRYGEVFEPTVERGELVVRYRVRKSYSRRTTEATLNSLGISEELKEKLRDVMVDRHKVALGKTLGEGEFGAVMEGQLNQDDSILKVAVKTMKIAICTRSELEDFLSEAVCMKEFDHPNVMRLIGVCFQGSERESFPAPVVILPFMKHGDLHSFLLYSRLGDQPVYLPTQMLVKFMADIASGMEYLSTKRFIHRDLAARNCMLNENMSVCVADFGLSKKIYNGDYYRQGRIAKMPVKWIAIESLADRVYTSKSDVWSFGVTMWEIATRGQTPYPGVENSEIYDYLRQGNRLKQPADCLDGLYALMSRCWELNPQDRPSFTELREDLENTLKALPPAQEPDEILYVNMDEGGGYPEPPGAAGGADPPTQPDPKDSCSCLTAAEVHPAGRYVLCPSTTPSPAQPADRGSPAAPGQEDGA
Assay: Cell-Free Axl Kinase Inhibitory Activity
Protocol: Next, the test compound was diluted with DMSO, and 1 μl of this diluted solution was added to each well.
Five microliters of this solution were added to each well to initiate a kinase reaction. The plate was incubated at 28° C. for 1.5 hours, and 40 μl of a termination buffer (100 mM HEPES (pH 7.4), 0.015% Brij-35, 40 mM EDTA, 0.1% Coating Reagent 3) was added to each well to terminate the reaction.
The substrate peptide and the phosphorylated peptide in the reaction solution were separated and quantified by EZ Reader II (Caliper Life Sciences).
IC50 was determined from inhibition data for 12 test compound concentrations by nonlinear regression (four-parameter logistic regression) using the following formula.

IC50 [nM]	Structure (SMILES)
1 to 10	Cn1cc(-c2cnc(N)c(-c3ccc(NC(=O)c4cn(CC(F)(F)F)cc(-c5ccccc5)c4=O)cc3)c2)cn1 [Example 54, N-{4-[2-Amino-5-(1-methyl-1H-pyrazol-4-yl)pyridin-3-yl]phenyl}-4-oxo-5-phenyl-1-(2,2,2-trifluoroethyl)-1,4-dihydropyridine-3-carboxamide]
1 to 10	Nc1ncc(-c2cnn(C[C@H]3COCCO3)c2)cc1-c1ccc(NC(=O)c2cn(CCF)cc(-c3ccccc3)c2=O)cc1F [Example 75, N-[4-(2-Amino-5-{1-[(2S)-1,4-dioxan-2-ylmethyl]-1H-pyrazol-4-yl}pyridin-3-yl)-3-fluorophenyl]-1-(2-fluoroethyl)-4-oxo-5-phenyl-1,4-dihydropyridine-3-carboxamide]
0.1 to 1	COc1ccnc(N)c1-c1ccc(NC(=O)c2cn(CC(F)(F)F)cc(-c3ccc(F)cc3)c2=O)cc1F [Example 85, N-[4-(2-Amino-4-methoxypyridin-3-yl)-3-fluorophenyl]-5-(4-fluorophenyl)-4-oxo-1-(2,2,2-trifluoroethyl)-1,4-dihydropyridine-3-carboxamide]
1 to 10	Cn1cc(-c2cnc(N)c(-c3ccc(NC(=O)c4cn(CCF)cc(-c5ccccc5)c4=O)cc3)c2)cn1 [Example 53, N-{4-[2-Amino-5-(1-methyl-1H-pyrazol-4-yl)pyridin-3-yl]phenyl}-1-(2-fluoroethyl)-4-oxo-5-phenyl-1,4-dihydropyridine-3-carboxamide]
10 to 20	COc1ccnc(N)c1-c1ccc(NC(=O)c2cn(CCF)cc(-c3ccc(F)cc3)c2=O)cc1 [Example 83, N-[4-(2-Amino-4-methoxypyridin-3-yl)phenyl]-1-(2-fluoroethyl)-5-(4-fluorophenyl)-4-oxo-1,4-dihydropyridine-3-carboxamide]
1 to 10	Cc1cc(-c2cnc(N)c(-c3ccc(NC(=O)c4cn(CCF)cc(-c5ccc(F)cc5)c4=O)cc3)c2)ccn1 [Example 78, N-[4-(6-Amino-2′-methyl-3,4′-bipyridin-5-yl)phenyl]-1-(2-fluoroethyl)-5-(4-fluorophenyl)-4-oxo-1,4-dihydropyridine-3-carboxamide]
1 to 10	CCn1cc(C(=O)Nc2ccc(-c3cc(-c4cnn(C)c4)cnc3N)cc2)c(=O)c(-c2ccccc2)c1 [Example 52, N-{4-[2-Amino-5-(1-methyl-1H-pyrazol-4-yl)pyridin-3-yl]phenyl}-1-ethyl-4-oxo-5-phenyl-1,4-dihydropyridine-3-carboxamide]
0.1 to 1	Cc1nnc(-c2cn(Cc3ccc(F)cc3)cc(C(=O)Nc3ccc(-c4cc(-c5cnn(C[C@H]6COCCO6)c5)cnc4N)cc3)c2=O)o1 [Example 74, N-[4-(2-Amino-5-{1-[(2S)-1,4-dioxan-2-ylmethyl]-1H-pyrazol-4-yl}pyridin-3-yl)phenyl]-1-(4-fluorobenzyl)-5-(5-methyl-1,3,4-oxadiazol-2-yl)-4-oxo-1,4-dihydropyridine-3-carboxamide]

Further lines, the compound ahead of its results:

Structure (SMILES)	IC50 [nM]
COc1cc(-c2cnc(N)c(-c3ccc(NC(=O)c4cn(CC(F)(F)F)cc(-c5ccc(F)cc5)c4=O)cc3)c2)ccc1OCCN1CCCC1 [Example 39, N-[4-(2-Amino-5-{3-methoxy-4-[2-(pyrrolidin-1-yl)ethoxy]phenyl}pyridin-3-yl)phenyl]-5-(4-fluorophenyl)-4-oxo-1-(2,2,2-trifluoroethyl)-1,4-dihydropyridine-3-carboxamide]	0.1 to 1
CCn1cc(C(=O)Nc2ccc(-c3cc(-c4ccc(OC)c(OC)c4)cnc3N)cc2)c(=O)c(-c2ccc(F)cc2)c1 [Example 3, N-{4-[2-Amino-5-(3,4-dimethoxyphenyl)pyridin-3-yl]phenyl}-1-ethyl-5-(4-fluorophenyl)-4-oxo-1,4-dihydropyridine-3-carboxamide]	0.1 to 1
COc1ccc(-c2cnc(N)c(-c3ccc(NC(=O)c4cn(CC(F)(F)F)cc(-c5ccccc5F)c4=O)cc3)c2)cc1OC [Example 21, N-{4-[2-Amino-5-(3,4-dimethoxyphenyl)pyridin-3-yl]phenyl}-5-(2-fluorophenyl)-4-oxo-1-(2,2,2-trifluoroethyl)-1,4-dihydropyridine-3-carboxamide]	1 to 10
COc1ccc(-c2cnc(N)c(-c3ccc(NC(=O)c4cn(Cc5ccc(F)cc5)cc(-c5nnc(C)o5)c4=O)cc3)c2)cc1OC [Example 28, N-{4-[2-Amino-5-(3,4-dimethoxyphenyl)pyridin-3-yl]phenyl}-1-(4-fluorobenzyl)-5-(5-methyl-1,3,4-oxadiazol-2-yl)-4-oxo-1,4-dihydropyridine-3-carboxamide]	0.1 to 1
COc1ccc(-c2cnc(N)c(-c3ccc(NC(=O)c4cn(CC(F)(F)F)cc(-c5ccccc5)c4=O)cc3)c2)cc1OC [Example 20, N-{4-[2-Amino-5-(3,4-dimethoxyphenyl)pyridin-3-yl]phenyl}-4-oxo-5-phenyl-1-(2,2,2-trifluoroethyl)-1,4-dihydropyridine-3-carboxamide]	1 to 10
COc1cc(-c2cnc(N)c(-c3ccc(NC(=O)c4cn(CC(F)(F)F)cc(-c5ccc(F)cc5)c4=O)cc3)c2)ccc1O [Example 37, N-{4-[2-Amino-5-(4-hydroxy-3-methoxyphenyl)pyridin-3-yl]phenyl}-5-(4-fluorophenyl)-4-oxo-1-(2,2,2-trifluoroethyl)-1,4-dihydropyridine-3-carboxamide]	1 to 10
COc1cc(-c2cnc(N)c(-c3ccc(NC(=O)c4cn(CC(F)(F)F)cc(-c5ccc(F)cc5)c4=O)cc3)c2)ccc1OC[C@H]1COCCO1 [Example 42, N-[4-(2-Amino-5-{4-[(2R)-1,4-dioxan-2-ylmethoxy]-3-methoxyphenyl}pyridin-3-yl)phenyl]-5-(4-fluorophenyl)-4-oxo-1-(2,2,2-trifluoroethyl)-1,4-dihydropyridine-3-carboxamide]	0.1 to 1
COc1ccc(-c2cnc(N)c(-c3ccc(NC(=O)c4cn(Cc5ccc(F)cc5)cc(C(=O)N5CCCC5)c4=O)cc3)c2)cc1OC [Example 26, N-{4-[2-Amino-5-(3,4-dimethoxyphenyl)pyridin-3-yl]phenyl}-1-(4-fluorobenzyl)-4-oxo-5-(pyrrolidin-1-ylcarbonyl)-1,4-dihydropyridine-3-carboxamide]	0.1 to 1
COc1ccc(-c2cnc(N)c(-c3ccc(NC(=O)c4cn(CC(F)(F)F)cc(-c5ccc(F)nc5)c4=O)cc3)c2)cc1OC [Example 23, N-{4-[2-Amino-5-(3,4-dimethoxyphenyl)pyridin-3-yl]phenyl}-6′-fluoro-4-oxo-1-(2,2,2-trifluoroethyl)-1,4-dihydro-3,3′-bipyridine-5-carboxamide]	1 to 10
COc1cc(-c2cnc(N)c(-c3ccc(NC(=O)c4cn(CCF)cc(-c5ccccc5)c4=O)cc3)c2)ccc1OCCN1CCCC1 [Example 40, N-(4-{2-Amino-5-[3-methoxy-4-(2-pyrrolidin-1-ylethoxy)phenyl]pyridin-3-yl}phenyl)-1-(2-fluoroethyl)-4-oxo-5-phenyl-1,4-dihydropyridine-3-carboxamide]	0.1 to 1
COc1cc(-c2cnc(N)c(-c3ccc(NC(=O)c4cn(Cc5ccccc5)cc(-c5ccc(F)cc5)c4=O)cc3)c2)ccc1OC[C@H]1COCCO1 [Example 41, N-[4-(2-Amino-5-{4-[(2R)-1,4-dioxan-2-ylmethoxy]-3-methoxyphenyl}pyridin-3-yl)phenyl]-1-benzyl-5-(4-fluorophenyl)-4-oxo-1,4-dihydropyridine-3-carboxamide]	1 to 10
